Read-outs that look alike come from different tables or passages of the source.
Tested on: HCV replicon, genotype-1a variant with glutamine 30 changed to glutamate in the NS5A protein
Assay: microbe, parasite or virus in culture
Format: cell-based, HCV genotype 1a
Details: for Fold-Synergistic 1a (Q30E): HCV replicon genotype 1a Q30E (Q→E) variant, test compound titrated with an NS5A-targeting compound (BMS-790052 fixed at 200 nM), ranking of synergist activity; for EC50: Hepatitis C virus, genotype 1a Q30E replicon
Method in brief: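 Synergy was assessed by combining several fixed amounts of an NS5A-targeting compound with a titration of the second compound of interest.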

Compound	Fold-Synergistic 1a (Q30E) [fold]	other results
COc1ccc2c(C(=O)N3CCC[C@H]3c3ncc(-c4ccc(-c5ccc(-c6cnc([C@@H]7CCCN7C(=O)c7nc(Cl)cc8cc(OC)ccc78)[nH]6)cc5)cc4)[nH]3)nc(Cl)cc2c1 [Compound S-204]	>100	–
O=C(C1Cc2ccccc2O1)N1CCC[C@H]1c1ncc(-c2ccc(-c3ccc(-c4cnc([C@@H]5CCCN5C(=O)C5Cc6ccccc6O5)[nH]4)cc3)cc2)[nH]1 (some centres unmarked) [Compound S-157]	>10	–
CC(C)(C)OC(=O)N1CC(C)(C)OC[C@H]1C(=O)N[C@H](c1nc(-c2ccc(-c3ccc(-c4c[nH]c([C@@H](NC(=O)[C@@H]5COC(C)(C)CN5C(=O)OC(C)(C)C)C(C)(C)C)n4)cc3)cc2)c[nH]1)C(C)(C)C [Compound L-60]	>100	–
COC(=O)N[C@H](C(=O)N1CCC[C@H]1c1nc(-c2ccc(-c3ccc(-c4c[nH]c([C@@H]5CCCN5C(=O)[C@@H](NC(=O)OC)C(C)C)n4)cc3)cc2)c[nH]1)C(C)C [BMS-790052, reference compound]	–	reciprocal synergistic inhibitory effect for the combination: ~100 fold; EC50 (P-55 fixed at 200 nM, read-out: EC50 of BMS-790052 in the presence of a fixed amount of P-55): ~2 nM; EC50 (compound alone, read-out: EC50, titrated singly): ~200 nM
COc1ccc(CNC(C)(C)C(=O)N[C@H](c2nc(-c3ccc(-c4ccc(-c5c[nH]c([C@@H](NC(=O)C(C)(C)NCc6ccc(OC)cc6)C(C)(C)C)n5)cc4)cc3)c[nH]2)C(C)(C)C)cc1 [Compound S-267]	>100	–
COC1CCN(C(=O)C(C)(C)C(=O)N[C@H](c2nc(-c3ccc(-c4ccc(-c5c[nH]c([C@@H](NC(=O)C(C)(C)C(=O)N6CCC(OC)CC6)C(C)(C)C)n5)cc4)cc3)c[nH]2)C(C)(C)C)CC1 [Compound W-143]	>100	–
CC(CF)(CF)OC(=O)NC1(C(=O)N[C@H](c2nc(-c3ccc(-c4ccc(-c5c[nH]c([C@@H](NC(=O)C6(NC(=O)OC(C)(CF)CF)CC6)C(C)(C)C)n5)cc4)cc3)c[nH]2)C(C)(C)C)CC1 [Compound L-27]	>100	–
Cc1nn(-c2ccccc2)nc1C(=O)N1CCC[C@H]1c1ncc(-c2ccc(-c3ccc(-c4cnc([C@@H]5CCCN5C(=O)c5nn(-c6ccccc6)nc5C)[nH]4)cc3)cc2)[nH]1 [Compound S-129]	>100	–
O=C(c1cnc2ccccc2n1)N1CCC[C@H]1c1ncc(-c2ccc(-c3ccc(-c4cnc([C@@H]5CCCN5C(=O)c5cnc6ccccc6n5)[nH]4)cc3)cc2)[nH]1 [Compound S-126]	>100	–
CC(C)(C)[C@H](NC(=O)C12CCC(CC1)C2)c1nc(-c2ccc(-c3ccc(-c4c[nH]c([C@@H](NC(=O)C56CCC(CC5)C6)C(C)(C)C)n4)cc3)cc2)c[nH]1 [Compound S-261]	>100	–
CC(C)(C)[C@H](NC(=O)C1(C)OCCCC1(F)F)c1nc(-c2ccc(-c3ccc(-c4c[nH]c([C@@H](NC(=O)C5(C)OCCCC5(F)F)C(C)(C)C)n4)cc3)cc2)c[nH]1 (some centres unmarked) [Compound P-162]	>100	–
C=C1CCC(C(=O)N[C@H](c2nc(-c3ccc(-c4ccc(-c5c[nH]c([C@@H](NC(=O)C6CCC(=C)CC6)C(C)(C)C)n5)cc4)cc3)c[nH]2)C(C)(C)C)CC1 [Compound N-118]	>100	–
COC(C)(C)C(=O)N[C@H](c1nc(-c2ccc(-c3ccc(-c4c[nH]c([C@@H](NC(=O)C(C)(C)OC)C(C)(C)C)n4)c(C)c3)cc2)c[nH]1)C(C)(C)C [Compound N-85]	>100	–
COC(=O)N1CCC(F)(F)C[C@H]1C(=O)N[C@H](c1nc(-c2ccc(-c3ccc(-c4c[nH]c([C@@H](NC(=O)[C@@H]5CC(F)(F)CCN5C(=O)OC)C(C)(C)C)n4)cc3)cc2)c[nH]1)C(C)(C)C [Compound L-43]	>100	–
CC(C)(C)[C@H](NC(=O)C1(C2(O)CCOCC2)CCC1)c1ncc(-c2ccc(-c3ccc(-c4cnc([C@@H](NC(=O)C5(C6(O)CCOCC6)CCC5)C(C)(C)C)[nH]4)cc3)cc2)[nH]1 [Compound B84]	>100	–
CC(C)(NCC(F)(F)F)C(=O)N[C@H](c1nc(-c2ccc(-c3ccc(-c4c[nH]c([C@@H](NC(=O)C(C)(C)NCC(F)(F)F)C(C)(C)C)n4)cc3)cc2)c[nH]1)C(C)(C)C [Compound L-50]	>100	–
O=C(CCN1CCOCC1)N1CCC[C@H]1c1ncc(-c2ccc(-c3ccc(-c4cnc([C@@H]5CCCN5C(=O)CCN5CCOCC5)[nH]4)cc3)cc2)[nH]1 [Compound S-196]	<10	–
N#CC1(C(=O)N2CCC[C@H]2c2ncc(-c3ccc(-c4ccc(-c5cnc([C@@H]6CCCN6C(=O)C6(C#N)CC6)[nH]5)cc4)cc3)[nH]2)CC1 [Compound S-194]	<10	–
CC(C)OC(=O)N1C[C@H](F)C[C@H]1C(=O)N[C@H](c1nc(-c2ccc(-c3ccc(-c4c[nH]c([C@@H](NC(=O)[C@@H]5C[C@@H](F)CN5C(=O)OC(C)C)C(C)(C)C)n4)cc3)cc2)c[nH]1)C(C)(C)C [Compound W-107]	>100	–
CC(C)[C@H](NC(=O)[C@@H]1C2C[C@@H]2CN1C(=O)OC(C)(C)C)c1nc(-c2ccc(-c3ccc(-c4c[nH]c([C@@H](NC(=O)[C@@H]5C6C[C@@H]6CN5C(=O)OC(C)(C)C)C(C)C)n4)cc3)cc2)c[nH]1 (some centres unmarked) [Compound W-74]	>100	–

Compound	Fold-Synergistic 1a (Q30E) [fold]	other results
CC(C)(C)[C@H](NC(=O)C1(N2CCOCC2)CC1)c1nc(-c2ccc(-c3ccc(-c4c[nH]c([C@@H](NC(=O)C5(N6CCOCC6)CC5)C(C)(C)C)n4)cc3)cc2)c[nH]1 [Compound L-31]	>100	–
CC1(C(=O)N[C@H](c2nc(-c3ccc(-c4ccc(-c5c[nH]c([C@@H](NC(=O)C6(C)OCC7(CC7)CO6)C(C)(C)C)n5)cc4)cc3)c[nH]2)C(C)(C)C)OCC2(CC2)CO1 (stereo partly drawn) [Compound L-84]	>100	–
COC(=O)N[C@@H](C(=O)NC1(c2nc(-c3ccc(-c4ccc(-c5c[nH]c(C6(NC(=O)[C@H](NC(=O)OC)C(C)C)CCCCC6)n5)cc4)cc3)c[nH]2)CCCCC1)C(C)C [Compound N-22]	>10	–
O=C(c1ccc(C(F)(F)F)nc1)N1CCC[C@H]1c1ncc(-c2ccc(-c3ccc(-c4cnc([C@@H]5CCCN5C(=O)c5ccc(C(F)(F)F)nc5)[nH]4)cc3)cc2)[nH]1 [Compound S-140]	>10	–
CC1(OC(=O)N2C[C@H](F)C[C@H]2C(=O)N[C@H](c2nc(-c3ccc(-c4ccc(-c5c[nH]c([C@@H](NC(=O)[C@@H]6C[C@@H](F)CN6C(=O)OC6(C)CC6)C(C)(C)C)n5)cc4)cc3)c[nH]2)C(C)(C)C)CC1 [Compound W-119]	>100	–
CC(C)[C@H](NC(=O)C1(C)CCCC1)c1nc(-c2ccc3c(c2)Cc2cc(-c4c[nH]c([C@@H](NC(=O)C5(C)CCCC5)C(C)C)n4)ccc2-3)c[nH]1 [Compound N-72]	>100	–
CC(C)(C)[C@H](NC(=O)[C@@H]1CCC[C@@H]1O)c1nc(-c2ccc(-c3ccc(-c4c[nH]c([C@@H](NC(=O)[C@@H]5CCC[C@@H]5O)C(C)(C)C)n4)cc3)cc2)c[nH]1 [Compound P-171]	>100	–
CC(C)(C)C(=O)N1CCC[C@H]1c1ncc(-c2ccc(-c3ccc(-c4cnc([C@@H]5CCCN5C(=O)C(C)(C)C)[nH]4)cc3)cc2)[nH]1 [Compound S-177]	<10	–
CC(C)(C)[C@H](NC(=O)C(C)(C)n1cnnn1)c1nc(-c2ccc(-c3ccc(-c4c[nH]c([C@@H](NC(=O)C(C)(C)n5cnnn5)C(C)(C)C)n4)cc3)cc2)c[nH]1 [Compound S-277]	>100	–
CC(C)(C)[C@H](NC(=O)C1(N2CCOC2=O)CC1)c1nc(-c2ccc(-c3ccc(-c4c[nH]c([C@@H](NC(=O)C5(N6CCOC6=O)CC5)C(C)(C)C)n4)cc3)cc2)c[nH]1 [Compound L-26]	>100	–
COC(=O)N[C@H](C(=O)NC1(c2nc(-c3ccc(-c4ccc(-c5c[nH]c(C6(NC(=O)[C@@H](NC(=O)OC)C(C)C)CC6)n5)cc4)cc3)c[nH]2)CC1)C(C)C [Compound N-20]	<10	–
O=C(c1ccsc1)N1CCC[C@H]1c1ncc(-c2ccc(-c3ccc(-c4cnc([C@@H]5CCCN5C(=O)c5ccsc5)[nH]4)cc3)cc2)[nH]1 [Compound S-183]	<10	–
CC(C)(C)[C@H](NC(=O)C1C2C3CCC(C3)C12)c1nc(-c2ccc(-c3ccc(-c4c[nH]c([C@@H](NC(=O)C5C6C7CCC(C7)C56)C(C)(C)C)n4)cc3)cc2)c[nH]1 (some centres unmarked) [Compound Y-62]	>100	–
COC(=O)C1(C(=O)N[C@H](c2nc(-c3ccc(-c4ccc(-c5c[nH]c([C@@H](NC(=O)C6(C(=O)OC)CC6)C(C)(C)C)n5)cc4)cc3)c[nH]2)C(C)(C)C)CC1 [Compound W-124]	>100	–
COC(=O)N[C@H](C(=O)N[C@H](c1nc(-c2ccc3cc(-c4ccc(-c5cnc([C@@H](NC(=O)[C@@H](NC(=O)OC)C(C)C)C(C)(C)C)[nH]5)cc4)ccc3c2)c[nH]1)C(C)(C)C)C(C)C [Compound N-7]	<10	–
O=C(c1cccnc1)N1CCC[C@H]1c1ncc(-c2ccc(-c3ccc(-c4cnc([C@@H]5CCCN5C(=O)c5cccnc5)[nH]4)cc3)cc2)[nH]1 [Compound S-185]	<10	–
O=C(c1ccccn1)N1CCC[C@H]1c1ncc(-c2ccc(-c3ccc(-c4cnc([C@@H]5CCCN5C(=O)c5ccccn5)[nH]4)cc3)cc2)[nH]1 [Compound S-184]	<10	–
O=C(c1ccccc1)N1CCC[C@H]1c1ncc(-c2ccc(-c3ccc(-c4cnc([C@@H]5CCCN5C(=O)c5ccccc5)[nH]4)cc3)cc2)[nH]1 [Compound S-106]	<10	–
CO[C@H]1C[C@@H](C(=O)N[C@H](c2nc(-c3ccc(-c4ccc(-c5c[nH]c([C@@H](NC(=O)[C@@H]6C[C@H](OC)CN6C(=O)OC(C)(C)C)C(C)(C)C)n5)cc4)cc3)c[nH]2)C(C)(C)C)N(C(=O)OC(C)(C)C)C1 [Compound W-115]	>100	–

— patent US9326973B2, “Hepatitis C virus inhibitors” (priority 2012, dated 2016)
